{"source": "ChEMBL document CHEMBL3046201", "about": "“Insights into the molecular mechanism of tolerance to carboxylic acid amide (CAA) fungicides in Pythium aphanidermatum” (2012)", "key": {"[1]": {"test_system": "Pythium aphanidermatum", "experiment": "Up-regulation of CesA1 gene expression in Pythium aphanidermatum at 100 uM after 8 hr by qRT-PCR method relative to untreated control", "format": "functional"}, "[2]": {"test_system": "Pythium aphanidermatum", "experiment": "Up-regulation of CesA2 gene expression in Pythium aphanidermatum at 100 uM after 8 hr by qRT-PCR method relative to untreated control", "format": "functional"}, "[3]": {"test_system": "Pythium aphanidermatum", "experiment": "Antifungal activity against Pythium aphanidermatum assessed as inhibition of mycelial growth at 10 uM after 3 days", "format": "functional, organism-based"}, "[4]": {"test_system": "Pythium aphanidermatum", "experiment": "Antifungal activity against Pythium aphanidermatum assessed as inhibition of mycelial growth at 100 uM after 3 days", "format": "functional", "settings": "72 h, read-out: GI"}, "[5]": {"test_system": "Pythium aphanidermatum", "experiment": "Inhibition of germ tube elongation of Pythium aphanidermatum synchronised cytospores at 0.5 to 121 uM after 4 hr", "format": "functional, organism-based"}, "[6]": {"test_system": "Pythium aphanidermatum", "experiment": "Effect on PaChs gene expression in Pythium aphanidermatum at 200 uM after 0.5 to 8 hr by qRT-PCR method", "format": "functional, organism-based"}, "[7]": {"test_system": "Pythium aphanidermatum", "experiment": "Effect on CesA1 gene expression in Pythium aphanidermatum at 200 uM after 8 hr by qRT-PCR method", "format": "functional, organism-based"}, "[8]": {"test_system": "Pythium aphanidermatum", "experiment": "Effect on CesA3 gene expression in Pythium aphanidermatum at 200 uM after 8 hr by qRT-PCR method", "format": "functional, organism-based"}, "[9]": {"test_system": "Pythium aphanidermatum", "experiment": "Inhibition of germ tube elongation of Pythium aphanidermatum synchronised cytospores at 500 uM after 4 hr", "format": "functional"}, "[10]": {"test_system": "Pythium aphanidermatum", "experiment": "Inhibition of zoospores encystment of Pythium aphanidermatum synchronised cytospores at 100 uM after 4 hr", "format": "functional, organism-based"}, "[11]": {"test_system": "Pythium aphanidermatum", "experiment": "Effect on PaChs gene expression in Pythium aphanidermatum at 100 uM after 0.5 to 8 hr by qRT-PCR method", "format": "functional, organism-based"}, "[12]": {"test_system": "Pythium aphanidermatum", "experiment": "Down-regulation of CesA3 gene expression in Pythium aphanidermatum at 200 uM after 0.5 to 4 hr by qRT-PCR method", "format": "functional, organism-based"}, "[13]": {"test_system": "Pythium aphanidermatum", "experiment": "Inhibition of germ tube elongation of Pythium aphanidermatum synchronised cytospores at >100 uM after 4 hr", "format": "functional, organism-based"}, "[14]": {"test_system": "Pythium aphanidermatum", "experiment": "Effect on CesA2 gene expression in Pythium aphanidermatum at 200 uM after 8 hr by qRT-PCR method", "format": "functional, organism-based"}, "[15]": {"test_system": "Pythium aphanidermatum", "experiment": "Effect on CesA4 gene expression in Pythium aphanidermatum at 100 uM after 0.5 to 8 hr by qRT-PCR method", "format": "functional, organism-based"}, "[16]": {"test_system": "Pythium aphanidermatum", "experiment": "Inhibition of zoospores release of Pythium aphanidermatum synchronised cytospores at 100 uM after 4 hr", "format": "functional, organism-based"}, "[17]": {"test_system": "Pythium aphanidermatum", "experiment": "Effect on CesA3 gene expression in Pythium aphanidermatum at 100 uM after 0.5 to 8 hr by qRT-PCR method", "format": "functional, organism-based"}, "[18]": {"test_system": "Pythium aphanidermatum", "experiment": "Down-regulation of CesA4 gene expression in Pythium aphanidermatum at 200 uM after 0.5 to 4 hr by qRT-PCR method", "format": "functional, organism-based"}, "[19]": {"test_system": "Pythium aphanidermatum", "experiment": "Down-regulation of CesA1 gene expression in Pythium aphanidermatum at 200 uM after 0.5 to 4 hr by qRT-PCR method", "format": "functional, organism-based"}, "[20]": {"test_system": "Saprolegnia monoica", "experiment": "Antifungal activity against Saprolegnia monoica assessed as inhibition of mycelial growth at 200 uM after 3 days", "format": "functional", "settings": "72 h, read-out: GI"}, "[21]": {"test_system": "Pythium aphanidermatum", "experiment": "Antifungal activity against Pythium aphanidermatum assessed as inhibition of mycelial growth at 200 uM after 3 days", "format": "functional", "settings": "72 h, read-out: GI"}, "[22]": {"test_system": "Pythium aphanidermatum", "experiment": "Effect on CesA4 gene expression in Pythium aphanidermatum at 200 uM after 8 hr by qRT-PCR method", "format": "functional, organism-based"}, "[23]": {"test_system": "Pythium aphanidermatum", "experiment": "Down-regulation of CesA2 gene expression in Pythium aphanidermatum at 200 uM after 0.5 to 4 hr by qRT-PCR method", "format": "functional, organism-based"}}, "note": "The source made the active and inactive calls. No cut-off for these calls is given here.", "data": [{"smiles": "C#CCOc1ccc(CCNC(=O)C(OCC#C)c2ccc(Cl)cc2)cc1OC", "note": "(stereo not drawn) [MANDIPROPAMID]", "values": [{"measurement": "fold change (FC)", "setting": "[1]", "value": 1.6}, {"measurement": "fold change (FC)", "setting": "[2]", "value": 2}, {"measurement": "growth inhibition (GI)", "setting": "[3]", "value": "inactive"}, {"measurement": "inhibition of growth at 100 µM", "setting": "[4]", "value": 34, "unit": "%"}, {"measurement": "inhibition", "setting": "[5]", "value": "inactive"}]}, {"smiles": "N#Cc1c(Cl)cccc1Cl", "note": "[DICHLOBENIL]", "values": [{"measurement": "Activity", "setting": "[6]", "value": "inactive"}, {"measurement": "Activity", "setting": "[7]", "value": "inactive"}, {"measurement": "Activity", "setting": "[8]", "value": "inactive"}, {"measurement": "inhibition at 500 µM", "setting": "[9]", "value": 18, "unit": "%"}, {"measurement": "inhibition", "setting": "[10]", "value": "inactive"}, {"measurement": "Activity", "setting": "[11]", "value": "inactive"}, {"measurement": "Activity", "setting": "[12]", "value": "Active"}, {"measurement": "inhibition", "setting": "[13]", "value": "Active"}, {"measurement": "Activity", "setting": "[14]", "value": "inactive"}, {"measurement": "Activity", "setting": "[15]", "value": "inactive"}, {"measurement": "inhibition", "setting": "[16]", "value": "inactive"}, {"measurement": "Activity", "setting": "[17]", "value": "inactive"}, {"measurement": "Activity", "setting": "[18]", "value": "Active"}, {"measurement": "Activity", "setting": "[19]", "value": "Active"}, {"measurement": "inhibition of growth at 200 µM", "setting": "[20]", "value": 40, "unit": "%"}, {"measurement": "inhibition of growth at 200 µM", "setting": "[21]", "value": 12, "unit": "%"}, {"measurement": "Activity", "setting": "[22]", "value": "inactive"}, {"measurement": "Activity", "setting": "[23]", "value": "Active"}]}]}
